pIC50: −log10 of the molar value. Like-named read-outs stand apart in the source and are kept apart here. *1 amine or outer side, *2 acyl side, *3 side chain or, on linkers, in order; H or OH if unused. Where a SMILES comes first, the peptide text is derived from it. Side-chain parts run from the residue outwards. [ ]: non-standard residue; d: D form. The star is where a group is joined. Propanoyl(3,3-Ph2) = O=C(CC(c1ccccc1)c1ccccc1)*; NMeW = CN[C@@H](Cc1c[nH]c2ccccc12)C(=O)O; 1Nal = N[C@@H](Cc1cccc2ccccc12)C(=O)O; Desaminotyrosyl = O=C(CCc1ccc(O)cc1)*; NMeF = CN[C@@H](Cc1ccccc1)C(=O)O; NMeD = CN[C@@H](CC(=O)O)C(=O)O; X4 = O=C(OC1C2CC3CC(C2)CC1C3)*; NH(2-Me-phenyl) = Cc1ccccc1N*; X9 = CN(C)c1ccc(C=CC(=O)*)cc1; Suc = O=C(CCC(=O)[*:2])[*:1]; X5 = O=C(CCc1ccc(O)c(I)c1)*; Boc = CC(C)(C)OC(=O)*; X3 = O=C(C=Cc1cccs1)*; CO = O=C([*:1])[*:2]; X2 = C1CN(CCO*)CCO1; Moc = COC(=O)* Bounds are passed on as bounds.

Experimental findings from patent US5270302A, “Derivatives of tetrapeptides as CCK agonists” (priority 1991, dated 1993) are described below.

In test [1] the target is T1, Type-A CCK receptor (Cavia porcellus, UniProt Q63931).
T1 construct: Cortical and pancreatic membranes were prepared as described; from tissue; host or cells: guinea pig pancreas membranes
T1 sequence (Q63931 1-430): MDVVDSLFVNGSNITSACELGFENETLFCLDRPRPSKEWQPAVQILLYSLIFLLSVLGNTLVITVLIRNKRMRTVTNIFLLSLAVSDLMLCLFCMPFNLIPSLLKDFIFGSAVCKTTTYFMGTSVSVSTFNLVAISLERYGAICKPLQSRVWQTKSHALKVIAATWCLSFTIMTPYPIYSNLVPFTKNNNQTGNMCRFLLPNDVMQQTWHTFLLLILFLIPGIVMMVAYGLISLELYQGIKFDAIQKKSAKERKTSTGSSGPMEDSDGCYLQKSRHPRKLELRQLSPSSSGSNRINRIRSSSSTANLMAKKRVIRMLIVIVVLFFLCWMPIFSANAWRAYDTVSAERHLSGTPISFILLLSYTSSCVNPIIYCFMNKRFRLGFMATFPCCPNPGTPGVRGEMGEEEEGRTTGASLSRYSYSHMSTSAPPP
Kind of test: Radioligand binding of [125I]BH-CCK-8 in guinea pig pancreatic membrane preparations. The settings on record: for IC50: guinea pig pancreatic membranes, 37° C., 150 min. The gist of the method:
(§1)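 Membranes came from male guinea pig pancreas (type A) or cerebral cortex (type B) and were resuspended in pH 7.4 HEPES-EGTA-salt buffer containing bestatin and phosphoramidon. Test compounds competed with [125I]BH-CCK-8 in 0.1% BSA: cortex 150 min at 30 °C, pancreas 150 min at 37 °C. Reactions ended by filtration; IC50 from Hill analysis.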

The target of test [2] is T2, Type-B CCK receptor (Cavia porcellus, UniProt H0VZC5).
T2 construct: Cortical and pancreatic membranes were prepared as described; from tissue; host or cells: guinea pig cerebral cortex membranes
T2 sequence (H0VZC5 1-426): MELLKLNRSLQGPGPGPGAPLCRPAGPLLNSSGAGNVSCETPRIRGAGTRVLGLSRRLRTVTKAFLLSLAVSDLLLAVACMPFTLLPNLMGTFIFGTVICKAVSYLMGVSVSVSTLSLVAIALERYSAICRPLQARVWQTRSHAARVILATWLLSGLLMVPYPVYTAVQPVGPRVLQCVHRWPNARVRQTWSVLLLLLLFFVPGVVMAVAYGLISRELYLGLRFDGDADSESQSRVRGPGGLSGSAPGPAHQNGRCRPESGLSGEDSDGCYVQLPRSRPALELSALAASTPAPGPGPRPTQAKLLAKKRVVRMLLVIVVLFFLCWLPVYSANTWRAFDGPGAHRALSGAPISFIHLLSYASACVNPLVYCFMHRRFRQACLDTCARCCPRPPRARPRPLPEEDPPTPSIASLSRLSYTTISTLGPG
Kind of test: Radioligand binding of [125I]BH-CCK-8 in guinea pig cerebral cortical membrane preparations. The conditions noted are these: for IC50: guinea pig cortical membranes, 30° C., 150 minutes. The gist of the method: as §1

The mark [3] stands for this setting: IC50 (nM) 125I-BH-CCK-8 Type-A receptor.
Where [4] appears, read: IC50 (nM) 125I-BH-CCK-8 Type-B receptor.
[5] abbreviates: read-out: IC50 (nM) 125I-BH-CCK-8 Type-A receptor.
[6] abbreviates: read-out: IC50 (nM) 125I-BH-CCK-8 Type-B receptor.

In the case of `CC(=O)N[C@@H](Cc1c[nH]c2ccccc12)C(=O)N[C@@H](CCCCNC(=O)Nc1ccccc1C)C(=O)N[C@@H](CC(=O)O)C(=O)N(C)[C@@H](Cc1ccccc1)C(N)=O` [Example 85, Acetyl-Trp-Lys(ε-N-(2-methylphenyl)aminocarbonyl)-Asp-(NMe)PheNH2] (Ac-WK([CO-NH(2-Me-phenyl)])D[NMeF]-NH2), the IC50 in test [1] (setting [3]) is 5.8 nM; in test [2] (setting [4]), 10000 nM.

In the case of `CNC(=O)N[C@@H](Cc1c[nH]c2ccccc12)C(=O)N[C@@H](CCCCNC(=O)Nc1ccccc1C)C(=O)N[C@@H](CC(=O)O)C(=O)N(C)[C@@H](Cc1ccccc1)C(N)=O` [Example 83, Methylaminocarbonyl-Trp-Lys(ε-N-(2-methylphenyl)aminocarbonyl)-Asp-(NMe)PheNH2] ({NHMe-CO}-WK([CO-NH(2-Me-phenyl)])D[NMeF]-NH2), the IC50 in test [1] (setting [3]) came to 9.7 nM; in test [2] (setting [4]), 4900 nM.

`Cc1ccccc1NC(=O)NCCCC[C@H](NC(=O)[C@H](Cc1c[nH]c2ccccc12)NC(=O)OC(C)(C)C)C(=O)N[C@@H](CC(=O)OCCN1CCOCC1)C(=O)N(C)[C@@H](Cc1ccccc1)C(N)=O` [Example 120, t-BOC-Trp-Lys(ε-N-(2-methylphenyl)aminocarbonyl)-Asp(β-2-(1-morpholino)ethyl)-(NMe)PheNH2] (Boc-WK([CO-NH(2-Me-phenyl)])D(X2)[NMeF]-NH2): the pIC50 in test [1] was 7.59; in test [2], 4.89.

As to `CC(C)(C)OC(=O)N[C@@H](Cc1c[nH]c2ccccc12)C(=O)N[C@@H](CCCCNC(=O)CCc1ccc(O)cc1)C(=O)N[C@@H](CC(=O)O)C(=O)N[C@@H](Cc1cccc2ccccc12)C(N)=O` [Example 21, t-BOC-Trp-Lys(ε-N-(3-(4-hydroxyphenyl)propionyl))-Asp-α-NalNH2] (Boc-WK(Desaminotyrosyl)D[1Nal]-NH2), the IC50 in test [1] (setting [5]) stood at 33 nM; in test [2] (setting [6]), 1200 nM.

On to `Cc1ccccc1NC(=O)NCCCC[C@H](NC(=O)[C@H](Cc1c[nH]c2ccccc12)NC(=O)OC1C2CC3CC(C2)CC1C3)C(=O)N[C@@H](CC(=O)O)C(=O)N(C)[C@@H](Cc1ccccc1)C(N)=O` (stereo partly drawn) [Example 74, 2-Adamantyloxycarbonyl-Trp-Lys(ε-N-(2-methylphenyl)aminocarbonyl)Asp-(NMe)PheNH2] (X4-WK([CO-NH(2-Me-phenyl)])D[NMeF]-NH2), for which the pIC50 is 7.66 in test [1] and 5.10 in test [2].

Take `Cc1ccccc1NC(=O)NCCCC[C@H](NC(=O)C(F)Cc1c[nH]c2ccccc12)C(=O)N[C@@H](CC(=O)O)C(=O)N(C)[C@@H](Cc1ccccc1)C(N)=O` (stereo partly drawn) [Example 108, (2-Fluoro-3-(3-indolyl)propionyl)-Lys(ε-N-(2-methylphenyl)aminocarbonyl)-Asp-(NMe)PheNH2]: the IC50 turned out to be 14 nM in test [1] (setting [5]) and 10000 nM in test [2] (setting [6]).

As for `Cc1ccccc1NC(=O)NCCCC[C@H](NC(=O)[C@H](Cc1c[nH]c2ccccc12)NC(=O)CC(c1ccccc1)c1ccccc1)C(=O)N[C@@H](CC(=O)O)C(=O)N(C)[C@@H](Cc1ccccc1)C(N)=O` [Example 92, (3,3-Diphenylpropionyl)-Trp-Lys(ε-N-(2-methylphenyl)aminocarbonyl)-Asp-(NMe)PheNH2] ({Propanoyl(3,3-Ph2)}-WK([CO-NH(2-Me-phenyl)])D[NMeF]-NH2), the pIC50 in test [1] was 8.25; in test [2] it was 5.30.

As to `Cc1ccccc1NC(=O)NCCCC[C@H](NC(=O)C(C)(N)Cc1c[nH]c2ccccc12)C(=O)N[C@@H](CC(=O)O)C(=O)N(C)[C@@H](Cc1ccccc1)C(N)=O` (single isomer, unassigned; isomer a) [Example 98, (α-Methyl)Trp-Lys(ε-N-(2-methylphenyl)aminocarbonyl)-Asp-(NMe)PheNH2 (Isomer A)], the IC50 in test [1] (setting [3]) was found to be 4.9 nM; in test [2] (setting [4]) it was 3200 nM.

`CN(C(=O)[C@H](CCCCNC(=O)C=Cc1cccs1)NC(=O)[C@H](Cc1c[nH]c2ccccc12)NC(=O)OC(C)(C)C)[C@@H](CC(=O)O)C(=O)N[C@@H](Cc1ccccc1)C(N)=O` [Example 66, t-BOC-Trp-Lys-(ε-N-3-(2-thienyl)acrylyl)-(NMe)Asp-PheNH2] (Boc-WK(X3)[NMeD]F-NH2): the IC50 in test [1] (setting [5]) was 35 nM; in test [2] (setting [6]), 8100 nM.

In the case of `Cc1ccccc1NC(=O)NCCCC[C@H](NC(=O)CCc1c[nH]c2ccccc12)C(=O)N(C)[C@@H](CC(=O)O)C(=O)N[C@@H](Cc1ccccc1)C(N)=O` [Example 65, 3-(3-Indolyl)propionyl-Lys(ε-N-(2-methylphenyl)aminocarbonyl)-(NMe)Asp-PheNH2], the IC50 in test [1] (setting [5]) is 68 nM; in test [2] (setting [6]) it was 10000 nM.

Take `Cc1ccccc1NC(=O)NCCCC[C@H](NC(=O)C1Cc2c[nH]c3cccc(c23)CC(=O)N1)C(=O)N[C@@H](CC(=O)O)C(=O)N(C)[C@@H](Cc1ccccc1)C(N)=O` (stereo partly drawn) [Example 112, Ctp-Lys(ε-N-(2-methylphenyl)aminocarbonyl)-Asp-(NMe)PheNH2]: the IC50 was determined as 6.3 nM in test [1] (setting [3]) and 900 nM in test [2] (setting [4]).

`Cc1ccccc1NC(=O)NCCCC[C@H](NC(=O)[C@H](Cc1c[nH]c2ccccc12)NC(=O)CCC(=O)O)C(=O)N[C@@H](CC(=O)O)C(=O)N(C)[C@@H](Cc1ccccc1)C(N)=O` [Example 94, (3-Carboxylpropionyl)-Trp-Lys(ε-N-(2-methylphenyl)aminocarbonyl)-Asp-(NMe)PheNH2] (Suc-WK([CO-NH(2-Me-phenyl)])D[NMeF]-NH2): the pIC50 in test [1] is 7.80; in test [2] it was 5.25.

For the molecule `CN(C)c1ccc(C=CC(=O)NCCCC[C@H](NC(=O)[C@H](Cc2c[nH]c3ccccc23)NC(=O)OC(C)(C)C)C(=O)N[C@@H](CC(=O)O)C(=O)N[C@@H](Cc2ccccc2)C(N)=O)cc1` [Example 13, t-BOC-Trp-Lys(ε-N-(4-(dimethylamino)cinnamoyl))-Asp-PheNH2] (Boc-WK(X9)DF-NH2), the results for the IC50 in test [1] (setting [5]) and in test [2] (setting [6]) were 120 nM and 2100 nM, respectively.

`Cc1ccccc1NC(=O)NCCCC[C@H](NC(=O)[C@H](Cc1c[nH]c2ccccc12)NC(=O)CCc1ccc(O)c(I)c1)C(=O)N[C@@H](CC(=O)O)C(=O)N(C)[C@@H](Cc1ccccc1)C(N)=O` [Example 93, (3-(4-Hydroxy-3-iodophenyl)propionyl)-Trp-Lys(ε-N-(2-methylphenyl)aminocarbonyl)-Asp-(NMe)PheNH2] (X5-WK([CO-NH(2-Me-phenyl)])D[NMeF]-NH2): the pIC50 in test [1] was 8.34; in test [2] it was 5.38.

As to `COC(=O)N[C@@H](Cc1c[nH]c2ccccc12)C(=O)N[C@@H](CCCCNC(=O)Nc1ccccc1C)C(=O)N[C@@H](CC(=O)O)C(=O)N(C)[C@@H](Cc1ccccc1)C(N)=O` [Example 80, Methoxycarbonyl-Trp-Lys(ε-N-(2-methylphenyl)aminocarbonyl)-Asp-(NMe)PheNH2] (Moc-WK([CO-NH(2-Me-phenyl)])D[NMeF]-NH2), the negative logarithm of the IC50 (pIC50) was 8.32 in test [1] and 5.28 in test [2].

Regarding `Cc1ccccc1NC(=O)NCCCC[C@H](NC(=O)CCc1c[nH]c2ccccc12)C(=O)N(C)[C@@H](CC(=O)O)C(=O)N[C@@H](Cc1cccc2ccccc12)C(N)=O` [Example 103, (3-(3-Indolyl)propionyl)-Lys(ε-N-(2-methylphenyl)aminocarbonyl)-(NMe)Asp-α-NalNH2], the IC50 in test [1] (setting [5]) turned out to be 6.1 nM; in test [2] (setting [6]), 6600 nM.

In the case of `CC(=O)N[C@@H](Cc1c[nH]c2ccccc12)C(=O)N[C@@H](CCCCNC(=O)Nc1ccccc1C)C(=O)N(C)[C@@H](CC(=O)O)C(=O)N[C@@H](Cc1ccccc1)C(N)=O` [Example 86, Acetyl-Trp-Lys(ε-N-(2-methylphenyl)aminocarbonyl)-(NMe)Asp-PheNH2] (Ac-WK([CO-NH(2-Me-phenyl)])[NMeD]F-NH2), the IC50 in test [1] (setting [3]) was 6.7 nM; in test [2] (setting [4]), > 10000 nM.

On to `CN[C@@H](Cc1c[nH]c2ccccc12)C(=O)N[C@@H](CCCCNC(=O)Nc1ccccc1C)C(=O)N(C)[C@@H](CC(=O)O)C(=O)N[C@@H](Cc1cccc2ccccc12)C(N)=O` [Example 100, (NMe)Trp-Lys(ε-N-(2-methylphenyl)aminocarbonyl)-(NMe)Asp-α-NalNH2] (H-[NMeW]K([CO-NH(2-Me-phenyl)])[NMeD][1Nal]-NH2), for which the IC50 in test [1] (setting [3]) came out at 8 nM; in test [2] (setting [4]) it was 12000 nM.
